Assay results taken from patent US9409952B2, “Peptide-compound cyclization method” (Chugai Seiyaku Kabushiki Kaisha, priority 2011, dated 2016).
Where two headings read alike, the source gives them in different places. Positions of bridges follow the written chain, without caps; N, C: chain ends. Non-standard residues stand in square brackets, D forms with d. Residues, ends and D or L forms follow the SMILES beside them. *: point of attachment. Ala(1H-tetrazol-5-yl) = N[C@@H](Cc1nnn[nH]1)C(=O)O; NMePhe(3-Cl) = CN[C@@H](Cc1cccc(Cl)c1)C(=O)O; NMeF = CN[C@@H](Cc1ccccc1)C(=O)O; NMeL = CN[C@@H](CC(C)C)C(=O)O; NMeA = CN[C@@H](C)C(=O)O; Piperidide = C1CCN(*)CC1; Sar = CNCC(=O)O

Assays:
[1] = Metabolic stability in human hepatic microsome; type: in vitro ADME; details: microsomes
[2] = PAMPA (parallel artificial membrane permeability assay); type: in vitro ADME; details: for Papp at 18 hours, 50 µM: PAMPA
Summary of the method: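 Artificial membrane was 10% (w/v) egg lecithin plus 0.5% (w/v) cholesterol in dodecane on a PVDF filter. A 10 mM DMSO stock was added at 0.5% (v/v) to donor buffer (50 mM MOPSO, pH 6.5, 5.0% glycocholic acid). After 18 h at 37 °C, LC/MS or LC/UV gave donor and acceptor levels for Pe.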

[3] = pH 7.4, human hepatic microsome, NADPH(+), read-out: CL NADPH(+)
[4] = membrane permeation rate (Pe), 50 mM MOPSO buffer pH 6.5 with 5.0% glycocholic acid, 37° C., 18 hours, read-out: iPAMPA Pe
[5] = membrane permeation rate (Pe), 50 mM MOPSO buffer pH 6.5 with 5.0% glycocholic acid, 37° C., 18 hours

Row | Structure (SMILES) | microsomal CLint at 1 uM [1, 3] [µL/min/mg] | Papp at 18 hours, 50 µM [2, 4] [×10⁻⁶ cm/s] | iPAMPA Pe [2, 5] | microsomal CLint at 1 uM ([1]; human, pH 7.4, CL NADPH(+)) [µL/min/mg] | Papp at 18 hours, 50 µM ([2]; pH 6.5) [×10⁻⁶ cm/s]
1 | CC(C)C[C@@H]1NC(=O)[C@H](CC(C)C)N(C)C(=O)C[C@@H](C(=O)N2CCCCC2)NC(=O)[C@H](CC(C)C)N(C)C(=O)[C@H](CC(C)C)N(C)C(=O)[C@H](Cc2nn[nH]n2)NC(=O)[C@H](CC(C)C)N(C)C(=O)[C@H](Cc2ccccc2)N(C)C(=O)[C@H](CC(C)C)NC(=O)[C@H](Cc2ccccc2)N(C)C(=O)[C@H](CC(C)C)N(C)C1=O [DP-908] ([NMeL]L[NMeL][NMeF]L[NMeF][NMeL][Ala(1H-tetrazol-5-yl)][NMeL][NMeL]D-Piperidide; lactam N-11) | 3 | 1.6 | – | – | –
2 | CC(C)C[C@H]1NC(=O)[C@H](Cc2ccccc2)N(C)C(=O)[C@H](CC(C)C)N(C)C(=O)[C@H](C)NC(=O)[C@H](CC(C)C)N(C)C(=O)[C@H](Cc2ccccc2)N(C)C(=O)[C@H](Cc2nn[nH]n2)NC(=O)C[C@@H](C(=O)N2CCCCC2)NC(=O)[C@H](CC(C)C)N(C)C(=O)[C@H](CC(C)C)N(C)C1=O [DP-909] ([Ala(1H-tetrazol-5-yl)][NMeF][NMeL]A[NMeL][NMeF][dL][NMeL][NMeL]D-Piperidide; lactam N-10) | 15 | 12 | – | – | –
3 | CC[C@H](C)[C@H](NC(=O)[C@H](CC(C)C)N(C)C(=O)[C@H](C)N(C)C(=O)[C@@H](NC(=O)[C@H](CC(C)C)N(C)C(=O)[C@@H]1CC(=O)N[C@H](C(C)C)C(=O)N(C)[C@@H](C)C(=O)N(C)[C@@H](Cc2cccc(Cl)c2)C(=O)N(C)[C@@H](CC(C)C)C(=O)N[C@@H]([C@@H](C)O)C(=O)N(C)[C@@H](CC(C)C)C(=O)N1)[C@@H](C)CC)C(=O)N1CCCCC1 [DP-911] ([dV][NMeA][NMePhe(3-Cl)][NMeL]T[NMeL]D[NMeL]I[NMeA][NMeL]I-Piperidide; lactam N-7) | 152 | – | 1.0E−07 | – | –
4 | CC[C@H](C)[C@H](NC(=O)CN(C)C(=O)[C@H](Cc1ccccc1)N(C)C(=O)[C@H](CC(C)C)N(C)C(=O)[C@@H](NC(=O)[C@@H]1CC(=O)N(C)[C@@H](C)C(=O)N[C@@H](CC(C)C)C(=O)N(C)[C@@H](CC(C)C)C(=O)N(C)[C@@H](C)C(=O)N(C)[C@@H](Cc2cccc(Cl)c2)C(=O)N[C@@H]([C@@H](C)O)C(=O)N1)C(C)C)C(=O)N1CCCCC1 [DP-912] ([NMeA]L[NMeL][NMeA][NMePhe(3-Cl)]TDV[NMeL][NMeF][Sar]I-Piperidide; lactam N-7) | 8 | 1.3 | – | – | –
5 | CC[C@H](C)[C@@H]1NC(=O)[C@H](C(C)C)NC(=O)[C@H](Cc2ccccc2)N(C)C(=O)[C@H](C(C)C)NC(=O)[C@H](CC(C)C)N(C)C(=O)[C@H](C)NC(=O)C[C@@H](C(=O)N(C)[C@@H](Cc2ccccc2)C(=O)N(C)[C@@H](CC(C)C)C(=O)N[C@H](C(=O)N(C)[C@@H](CC(C)C)C(=O)N[C@H](C(=O)N2CCCCC2)[C@@H](C)CC)[C@@H](C)O)NC1=O [DP-913] (A[NMeL]V[NMeF]VID[NMeF][NMeL]T[NMeL]I-Piperidide; lactam N-7) | 30 | – | 1.0E−07 | – | –
6 | CC[C@H](C)[C@H](NC(=O)[C@H](CC(C)C)NC(=O)[C@H](CC(C)C)N(C)C(=O)[C@H](Cc1cccc(Cl)c1)N(C)C(=O)[C@@H](NC(=O)[C@@H]1CC(=O)N[C@@H](Cc2ccccc2)C(=O)N[C@@H]([C@@H](C)O)C(=O)N[C@@H](CC(C)C)C(=O)N(C)[C@@H](CC(C)C)C(=O)N(C)[C@@H](C)C(=O)N(C)[C@@H](CC(C)C)C(=O)N1)[C@@H](C)CC)C(=O)N1CCCCC1 [DP-914] (FTL[NMeL][NMeA][NMeL]DI[NMePhe(3-Cl)][NMeL]LI-Piperidide; lactam N-7) | 29 | – | 1.0E−07 | – | –
7 | CC[C@H](C)[C@H](NC(=O)[C@H](Cc1ccccc1)N(C)C(=O)[C@H](Cc1cccc(Cl)c1)N(C)C(=O)[C@H](C)N(C)C(=O)[C@@H]1CCCN1C(=O)[C@@H]1CC(=O)N[C@@H](C)C(=O)N(C)[C@@H](CC(C)C)C(=O)N(C)[C@@H](Cc2ccccc2)C(=O)N[C@@H]([C@@H](C)O)C(=O)N(C)[C@@H](Cc2ccccc2)C(=O)N[C@@H](CC(C)C)C(=O)N1)C(=O)N1CCCCC1 [DP-915] (A[NMeL][NMeF]T[NMeF]LDP[NMeA][NMePhe(3-Cl)][NMeF]I-Piperidide; lactam N-7) | 89 | – | 1.0E−07 | – | –
8 | CC[C@H](C)[C@H](NC(=O)[C@H](CC(C)C)N(C)C(=O)[C@H](CC(C)C)N(C)C(=O)[C@H](Cc1ccccc1)N(C)C(=O)[C@@H]1CC(=O)N[C@H](C(C)C)C(=O)N(C)[C@@H](Cc2cccc(Cl)c2)C(=O)N(C)[C@@H](C)C(=O)N(C)[C@@H](CC(C)C)C(=O)N[C@@H]([C@@H](C)O)C(=O)N(C)[C@@H](CC(C)C)C(=O)N1)C(=O)N1CCCCC1 [DP-916] ([dV][NMePhe(3-Cl)][NMeA][NMeL]T[NMeL]D[NMeF][NMeL][NMeL]I-Piperidide; lactam N-7) | 55 | – | 1.0E−07 | – | –
9 | CC[C@H](C)[C@H](NC(=O)[C@H](Cc1ccccc1)NC(=O)[C@@H](NC(=O)[C@@H]1CC(=O)N[C@H](C)C(=O)N(C)[C@@H](CC(C)C)C(=O)N[C@@H]([C@@H](C)O)C(=O)N(C)[C@@H](CC(C)C)C(=O)N(C)[C@@H](Cc2ccccc2)C(=O)N(C)[C@@H](CC(C)C)C(=O)N1)C(C)C)C(=O)N[C@H](C(=O)N1CCCCC1)[C@@H](C)CC [DP-917] ([dA][NMeL]T[NMeL][NMeF][NMeL]DVFII-Piperidide; lactam N-7) | 177 | – | 1.0E−07 | – | –
10 | CC[C@H](C)[C@H](NC(=O)[C@H](C)N(C)C(=O)[C@H](Cc1ccccc1)N(C)C(=O)[C@H](CC(C)C)N(C)C(=O)[C@@H]1CC(=O)N[C@@H](C)C(=O)N(C)[C@@H](Cc2ccccc2)C(=O)N(C)[C@@H](CC(C)C)C(=O)N[C@@H]([C@@H](C)O)C(=O)N(C)CC(=O)N(C)[C@@H](Cc2ccccc2)C(=O)N1)C(=O)N1CCCCC1 [DP-918] (A[NMeF][NMeL]T[Sar][NMeF]D[NMeL][NMeF][NMeA]I-Piperidide; lactam N-7) | 55 | 5.3 | – | – | –
11 | CC[C@H](C)[C@H](NC(=O)[C@H](CC(C)C)NC(=O)[C@H](CC(C)C)N(C)C(=O)CN(C)C(=O)[C@@H]1CC(=O)N[C@H](C)C(=O)N[C@@H]([C@@H](C)O)C(=O)N(C)[C@@H](CC(C)C)C(=O)N[C@@H]([C@@H](C)CC)C(=O)N(C)[C@@H](CC(C)C)C(=O)N[C@@H](CC(C)C)C(=O)N1)C(=O)N1CCCCC1 [DP-919] ([dA]T[NMeL]I[NMeL]LD[Sar][NMeL]LI-Piperidide; lactam N-7) | 128 | 27 | – | – | –
12 | CC[C@H](C)[C@H](NC(=O)[C@H](Cc1ccccc1)N(C)C(=O)[C@H](CC(C)C)N(C)C(=O)[C@@H](NC(=O)[C@@H]1CC(=O)N(C)[C@@H](C)C(=O)N[C@@H]([C@@H](C)CC)C(=O)N(C)[C@@H](CC(C)C)C(=O)N[C@@H]([C@@H](C)O)C(=O)N[C@@H](CC(C)C)C(=O)N(C)[C@@H](Cc2cccc(Cl)c2)C(=O)N1)C(C)C)C(=O)N1CCCCC1 [DP-920] ([NMeA]I[NMeL]TL[NMePhe(3-Cl)]DV[NMeL][NMeF]I-Piperidide; lactam N-7) | 27 | 0.22 | – | – | –
13 | CC[C@H](C)[C@H](NC(=O)[C@H](CC(C)C)N(C)C(=O)[C@H](Cc1ccccc1)NC(=O)[C@H](Cc1ccccc1)N(C)C(=O)[C@@H]1CC(=O)N(C)[C@@H](C)C(=O)N[C@@H](C(C)C)C(=O)N[C@@H](CC(C)C)C(=O)N(C)[C@@H](Cc2ccccc2)C(=O)N[C@@H](CC(C)C)C(=O)N[C@@H]([C@@H](C)O)C(=O)N1)C(=O)N1CCCCC1 [DP-921] ([NMeA]VL[NMeF]LTD[NMeF]F[NMeL]I-Piperidide; lactam N-7) | 88 | 0.34 | – | – | –
14 | CC[C@H](C)[C@H](NC(=O)[C@@H](NC(=O)[C@H](Cc1ccccc1)NC(=O)[C@H](CC(C)C)N(C)C(=O)[C@@H](NC(=O)[C@@H]1CC(=O)N[C@@H](C)C(=O)N(C)[C@@H](C)C(=O)N(C)[C@@H](Cc2ccccc2)C(=O)N[C@@H]([C@@H](C)O)C(=O)N(C)[C@@H](Cc2ccccc2)C(=O)N[C@@H](CC(C)C)C(=O)N2CCC[C@H]2C(=O)N1)[C@@H](C)CC)C(C)C)C(=O)N1CCCCC1 [DP-922] (A[NMeA][NMeF]T[NMeF]LPDI[NMeL]FVI-Piperidide; lactam N-8) | – | – | – | 70 | 0.12
15 | CC[C@H](C)[C@H](NC(=O)[C@H](Cc1cccc(Cl)c1)N(C)C(=O)[C@H](CC(C)C)NC(=O)[C@H](C)N(C)C(=O)[C@H](CC(C)C)N(C)C(=O)[C@@H]1CC(=O)N[C@@H](Cc2ccccc2)C(=O)N(C)[C@@H](Cc2ccccc2)C(=O)N2CCC[C@H]2C(=O)N[C@@H](CC(C)C)C(=O)N(C)[C@@H](Cc2cccc(Cl)c2)C(=O)N[C@@H]([C@@H](C)O)C(=O)N[C@@H](CC(C)C)C(=O)N1)C(=O)N1CCCCC1 [DP-923] (F[NMeF]PL[NMePhe(3-Cl)]TLD[NMeL][NMeA]L[NMePhe(3-Cl)]I-Piperidide; lactam N-8) | – | – | – | 8 | 0.1
16 | CC[C@H](C)[C@H](NC(=O)[C@H](CC(C)C)N(C)C(=O)CN(C)C(=O)[C@H](C)N(C)C(=O)[C@H](Cc1ccccc1)N(C)C(=O)[C@@H]1CC(=O)N[C@H](C(C)C)C(=O)N[C@@H](C(C)C)C(=O)N[C@@H]([C@@H](C)O)C(=O)N[C@@H](CC(C)C)C(=O)N[C@@H](Cc2ccccc2)C(=O)N(C)[C@@H](CC(C)C)C(=O)N(C)[C@@H](Cc2cccc(Cl)c2)C(=O)N1)C(=O)N1CCCCC1 [DP-924] ([dV]VTLF[NMeL][NMePhe(3-Cl)]D[NMeF][NMeA][Sar][NMeL]I-Piperidide; lactam N-8) | 19 | 0.1 | – | – | –
